For test [1], the target named is KRAS Wild Type (Homo sapiens (Human), UniProt P01116). In words: SPR binding affinity and kinetics, GTPγS-loaded KRAS Wild Type. Conditions: GTPγS loaded protein, geomean. Put shortly:
(§1)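 Surface plasmon resonance tracked compound dissociation for at least 3600 seconds, with no additional regeneration between cycles. Fit adequacy was judged from c2 values and randomness of the residue distribution.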

For test [2], the target named is KRAS G12D (Homo sapiens (Human), UniProt P01116, G12D). As to the kind of experiment: SPR binding affinity and kinetics, GTPγS-loaded KRAS G12D. Conditions: GTPγS loaded protein, geomean. A digest of the protocol: as §1
Chain of KRAS G12D (P01116 other isoform, or with tags, fused parts or gaps G12D): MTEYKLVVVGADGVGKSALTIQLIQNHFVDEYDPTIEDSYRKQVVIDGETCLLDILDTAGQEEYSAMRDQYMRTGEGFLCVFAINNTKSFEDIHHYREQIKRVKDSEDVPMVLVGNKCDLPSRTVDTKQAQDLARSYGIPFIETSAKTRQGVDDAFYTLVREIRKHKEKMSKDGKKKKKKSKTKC
Test [3] concerns the target KRAS G12C (Homo sapiens (Human), UniProt P01116, G12C). As to the kind of experiment: SPR binding affinity and kinetics, GTPγS-loaded KRAS G12C. Conditions: GTPγS loaded protein, geomean. Put shortly: as §1
In general terms: SPR reads the build-up and loss of mass on a sensor chip optically.

Test [4] concerns the target KRAS G12V (Homo sapiens (Human), UniProt P01116, G12V). In words: SPR binding affinity and kinetics, GTPγS-loaded KRAS G12V. Conditions: GTPγS loaded protein, geomean. A digest of the protocol: as §1
In test [5] the target is HRAS Wild Type (Homo sapiens (Human), UniProt P01112). As to the kind of experiment: SPR binding affinity and kinetics, GTPγS-loaded HRAS Wild Type. Conditions: GTPγS loaded protein, geomean. From the text: (§2) No additional regeneration was used.
Chain of HRAS Wild Type (P01112 2-184): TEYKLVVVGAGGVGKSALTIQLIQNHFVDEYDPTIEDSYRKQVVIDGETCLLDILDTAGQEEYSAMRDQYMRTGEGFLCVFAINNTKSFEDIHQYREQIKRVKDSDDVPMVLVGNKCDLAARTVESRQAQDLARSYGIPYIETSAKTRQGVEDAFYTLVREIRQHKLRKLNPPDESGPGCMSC
(§3) Compound dissociation was monitored for at least 3600 seconds. […] No additional regeneration was used.
(§4) The adequateness of the fit was judged by c2 values and the randomness of residue distribution.

Test [6] deals with NRAS Wild Type (Homo sapiens (Human), UniProt P01111). In words: SPR binding affinity and kinetics, GTPγS-loaded NRAS Wild Type. Conditions: GTPγS loaded protein, geomean.
Chain of NRAS Wild Type (P01111 2-185): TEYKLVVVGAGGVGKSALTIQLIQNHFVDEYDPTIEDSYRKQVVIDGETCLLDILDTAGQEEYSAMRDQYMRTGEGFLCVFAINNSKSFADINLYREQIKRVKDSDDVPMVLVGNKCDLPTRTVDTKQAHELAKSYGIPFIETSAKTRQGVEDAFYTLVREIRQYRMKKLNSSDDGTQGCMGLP
Source text: as §2, §3, §4

For test [7], the system named is H358 (non-small cell lung cancer cell line). In words: KRAS Cell Titer Glo (CTG) cell proliferation assay, H358. Type of test: cell-based. Conditions: Homo sapiens, NCI-H358, 168 h; H358 cells, 7-day CTG, geomean IC50. A digest of the protocol: (§5)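 Compounds pre-dispensed in 0.1% DMSO before seeding H358 (300 cells/well), SW620 (750) or PANC08.13 (600); 7-day exposure at 37 °C, 5% CO2. Viability by CellTiter-Glo luminescence after 15 min at room temperature. Percent effect normalised to DMSO (0%) and 1 uM trametinib (100%); geomean IC50.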
(ATP-based viability assays read luminescence as a measure of living cells.)

Test [8] deals with SW620 (colorectal cancer cell line). As to the kind of experiment: KRAS Cell Titer Glo (CTG) cell proliferation assay, SW620. It counts as cell-based. Conditions: Homo sapiens, SW-620, 168 h; SW620 cells, 7-day CTG, geomean IC50. A digest of the protocol: as §5
Test [9] has as its system PANC08.13 (pancreatic cancer cell line). As to the kind of experiment: KRAS Cell Titer Glo (CTG) cell proliferation assay, PANC08.13. It counts as cell-based. The following applies: Homo sapiens, PANC-08-13, 168 h; PANC08.13 cells, 7-day CTG, geomean IC50. Put shortly:
as §5

Usually Kd stands for the equilibrium constant for the complex coming apart. A higher Kd goes with lower affinity. A word on the IC50: it is the concentration that inhibits the measured activity by half.

Chain of KRAS G12C (P01116 other isoform, or with tags, fused parts or gaps G12C): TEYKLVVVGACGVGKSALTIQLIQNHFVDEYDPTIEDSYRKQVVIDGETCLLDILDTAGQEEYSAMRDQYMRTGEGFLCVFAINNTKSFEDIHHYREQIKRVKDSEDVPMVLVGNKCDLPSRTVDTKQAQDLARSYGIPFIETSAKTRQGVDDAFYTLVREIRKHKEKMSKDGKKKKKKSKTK
Chain of KRAS G12V (P01116 other isoform, or with tags, fused parts or gaps G12V): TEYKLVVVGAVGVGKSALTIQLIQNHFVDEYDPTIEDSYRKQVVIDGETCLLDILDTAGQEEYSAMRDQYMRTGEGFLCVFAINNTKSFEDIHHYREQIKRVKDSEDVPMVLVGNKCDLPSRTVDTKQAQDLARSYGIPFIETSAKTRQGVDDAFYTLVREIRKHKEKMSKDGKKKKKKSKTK
Chain of KRAS Wild Type (P01116 other isoform, or with tags, fused parts or gaps): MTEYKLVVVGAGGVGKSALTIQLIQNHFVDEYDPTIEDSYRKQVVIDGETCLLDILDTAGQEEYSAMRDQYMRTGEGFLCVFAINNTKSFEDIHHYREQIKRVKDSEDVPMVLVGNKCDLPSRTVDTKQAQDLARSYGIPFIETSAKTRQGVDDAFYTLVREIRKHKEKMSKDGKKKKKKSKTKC

As to `C/C=C1\CN2CCC[C@@]2(COc2nc3c4c(nc(-c5c(C6CC6)c(Cl)cc6[nH]ncc56)c(F)c4n2)OC[C@@H]2COCCCN32)C1` [Example 26, (8aS)-5-(6-chloro-5-cyclopropyl-1H-indazol-4-yl)-2-{[(2Z,7aS)-2-ethylidenetetrahydro-1H-pyrrolizin-7a(5H)-yl]methoxy}-4-fluoro-8a,9,12,13-tetrahydro-8H,11H-7,10-dioxa-1,3,6,13a-tetraazanaphtho[1,8-ab]heptalene], the Kd in test [1] was 2 nM; in [2], 1 nM; in [3] it was 1 nM; in test [4], 1 nM; in [5] it was more than 10000 nM; in [6], more than 10000 nM. For the same compound, the IC50 in test [7] is 17 nM; in test [8], 16 nM; in test [9], 2 nM.
For `COC/C=C1\CN2CCC[C@@]2(COc2nc3c4c(nc(-c5c(C6CC6)c(Cl)cc6[nH]ncc56)c(F)c4n2)OC[C@@H]2COCCCN32)C1` [Example 28, (8aS)-5-(6-chloro-5-cyclopropyl-1H-indazol-4-yl)-4-fluoro-2-{[(2Z,7aS)-2-(2-methoxyethylidene)tetrahydro-1H-pyrrolizin-7a(5H)-yl]methoxy}-8a,9,12,13-tetrahydro-8H,11H-7,10-dioxa-1,3,6,13a-tetraazanaphtho[1,8-ab]heptalene], the Kd in test [1] was 3 nM; in [2], 1 nM; in test [3], 2 nM; in test [4], 2 nM; in test [5] it was more than 10000 nM; in [6] it was more than 10000 nM. In addition, the values for the IC50 in test [7], in [8] and in [9] were 19 nM, 26 nM and 4 nM, respectively.
On to `C=C1CN2CCC[C@@]2(COc2nc3c4c(nc(-c5c6c(cc7[nH]ncc57)CCC[C@H]6C)c(F)c4n2)OC[C@@H]2COCCCN32)C1` [Example 29, (8aS)-4-fluoro-2-{[(7aS)-2-methylidenetetrahydro-1H-pyrrolizin-7a(5H)-yl]methoxy}-5-[(5R)-5-methyl-5,6,7,8-tetrahydro-1H-benzo[f]indazol-4-yl]-8a,9,12,13-tetrahydro-8H,11H-7,10-dioxa-1,3,6,13a-tetraazanaphtho[1,8-ab]heptalene], for which the Kd in [1] is 1 nM; in test [2] it was 1 nM; in test [3], 1 nM; in test [4], 2 nM; in [5], more than 10000 nM; in test [6], more than 10000 nM. In addition, the figures for the IC50 in test [7], in [8] and in [9] were 4 nM, 8 nM and less than 1 nM, respectively.
Turning to `C[C@@H]1CCCc2cc3[nH]ncc3c(-c3nc4c5c(nc(OC[C@@]67CCCN6C[C@H](F)C7)nc5c3F)N3CCCOC[C@H]3CO4)c21` [Example 36, (8aS)-4-fluoro-2-{[(2R,7aS)-2-fluorotetrahydro-1H-pyrrolizin-7a(5H)-yl]methoxy}-5-[(5R)-5-methyl-5,6,7,8-tetrahydro-1H-benzo[f]indazol-4-yl]-8a,9,12,13-tetrahydro-8H,11H-7,10-dioxa-1,3,6,13a-tetraazanaphtho[1,8-ab]heptalene], the dissociation constant Kd was 7 nM in test [1]; 3 nM in test [2]; 5 nM in test [3]; 9 nM in test [4]; more than 10000 nM in test [5]; more than 10000 nM in [6]. The IC50 in [7] was determined as 15 nM; in test [8], 31 nM; in test [9], 4 nM.
Consider `COC/C=C1\CN2CCC[C@@]2(COc2nc3c4c(nc(-c5c6c(cc7[nH]ncc57)CCC[C@H]6C)c(F)c4n2)OC[C@@H]2COCCCN32)C1` [Example 37, (8aS)-4-fluoro-2-{[(2Z,7aS)-2-(2-methoxyethylidene)tetrahydro-1H-pyrrolizin-7a(5H)-yl]methoxy}-5-[(5R)-5-methyl-5,6,7,8-tetrahydro-1H-benzo[f]indazol-4-yl]-8a,9,12,13-tetrahydro-8H,11H-7,10-dioxa-1,3,6,13a-tetraazanaphtho[1,8-ab]heptalene], for which the Kd in test [1] was 3 nM; in test [2] it was 2 nM; in test [3] it was 3 nM; in [4], 4 nM; in test [5], more than 10000 nM; in test [6], more than 10000 nM. The IC50 in [7] stood at 9 nM; in test [8] it was 25 nM; in test [9], 4 nM.
For the compound `C=C1CN2CCC[C@@]2(COc2nc3c4c(nc(-c5c(C6(C)CC6)c(Cl)cc6[nH]ncc56)c(F)c4n2)OC[C@@H]2COCCCN32)C1` [Example 39, (8aS)-5-[6-chloro-5-(1-methylcyclopropyl)-1H-indazol-4-yl]-4-fluoro-2-{[(7aS)-2-methylidenetetrahydro-1H-pyrrolizin-7a(5H)-yl]methoxy}-8a,9,12,13-tetrahydro-8H,11H-7,10-dioxa-1,3,6,13a-tetraazanaphtho[1,8-ab]heptalene], the equilibrium dissociation constant (Kd) in test [1] was 2 nM; in test [2], 1 nM; in test [3] it was 2 nM; in [4] it was 2 nM; in test [5] it was more than 10000 nM; in test [6] it was more than 10000 nM. The IC50 in [7] is 10 nM; in test [8], 7 nM; in [9], less than 1 nM.
With `Fc1c(-c2c(C3CC3)c(Cl)cc3[nH]ncc23)nc2c3c(nc(OC[C@@]45CCCN4CC(=C4COC4)C5)nc13)N1CCCOC[C@H]1CO2` [Example 41, (8aS)-5-(6-chloro-5-cyclopropyl-1H-indazol-4-yl)-4-fluoro-2-{[(7aS)-2-(oxetan-3-ylidene)tetrahydro-1H-pyrrolizin-7a(5H)-yl]methoxy}-8a,9,12,13-tetrahydro-8H,11H-7,10-dioxa-1,3,6,13a-tetraazanaphtho[1,8-ab]heptalene], the Kd is 5 nM in test [1]; 2 nM in [2]; 4 nM in [3]; 4 nM in test [4]; more than 10000 nM in test [5]; more than 10000 nM in test [6]. For the same compound, the IC50 in [7] is 25 nM; in test [8], 36 nM; in test [9] it was 5 nM.
`C=C1CN2CCC[C@@]2(COc2nc3c4c(nc(-c5c(C6CC6)c(Cl)cc6[nH]nc(Cl)c56)c(F)c4n2)OC[C@@H]2COCCCN32)C1` [Example 46, (8aS)-5-(3,6-dichloro-5-cyclopropyl-1H-indazol-4-yl)-4-fluoro-2-{[(7aS)-2-methylidenetetrahydro-1H-pyrrolizin-7a(5H)-yl]methoxy}-8a,9,12,13-tetrahydro-8H,11H-7,10-dioxa-1,3,6,13a-tetraazanaphtho[1,8-ab]heptalene]: the dissociation constant Kd in [1] is 4 nM; in test [2], 3 nM; in [3], 3 nM; in test [4] it was 4 nM; in test [5] it was more than 10000 nM; in test [6], more than 10000 nM. In addition, the IC50 in test [7] stood at 15 nM; in test [8] it was 45 nM; in test [9], 5 nM.
Consider `C[C@@H]1CCCc2cc3[nH]ncc3c(-c3nc4c5c(nc(OC[C@@]67CCCN6CC(=C6COC6)C7)nc5c3F)N3CCCOC[C@H]3CO4)c21` [Example 47, (8aS)-4-fluoro-5-[(5R)-5-methyl-5,6,7,8-tetrahydro-1H-benzo[f]indazol-4-yl]-2-{[(7aS)-2-(oxetan-3-ylidene)tetrahydro-1H-pyrrolizin-7a(5H)-yl]methoxy}-8a,9,12,13-tetrahydro-8H,11H-7,10-dioxa-1,3,6,13a-tetraazanaphtho[1,8-ab]heptalene], for which the Kd in test [1] was 3 nM; in test [2], 2 nM; in test [3] it was 4 nM; in test [4], 4 nM; in test [5] it was more than 10000 nM; in test [6] it was more than 10000 nM. The figures for the IC50 in test [7], in [8] and in [9] were 14 nM, 11 nM and 10 nM, respectively.
In the case of `C/C=C1\CN2CCC[C@@]2(COc2nc3c4c(nc(-c5c6c(cc7[nH]ncc57)CCC[C@H]6C)c(F)c4n2)OC[C@@H]2COCCCN32)C1` [Example 53, (8aS)-2-{[(2Z,7aS)-2-ethylidenetetrahydro-1H-pyrrolizin-7a(5H)-yl]methoxy}-4-fluoro-5-[(5R)-5-methyl-5,6,7,8-tetrahydro-1H-benzo[f]indazol-4-yl]-8a,9,12,13-tetrahydro-8H,11H-7,10-dioxa-1,3,6,13a-tetraazanaphtho[1,8-ab]heptalene], the Kd in test [1] was 1 nM; in test [2] it was 1 nM; in test [3] it was 1 nM; in test [4], 2 nM; in [5] it was more than 10000 nM; in [6], more than 10000 nM. For the same compound, the IC50 in [7] amounted to 8 nM; in test [8] it was 4 nM; in test [9], 5 nM.
